Data on 12 compounds can be found in PubChem BioAssay (NCI).

Structures are written as SMILES.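 Protocol summary: plate cells (96-well), add compound at 5 concentrations, incubate 48 h, interpolate endpoints linearly. At the GI50, growth is halved. The concentration for full growth arrest is given as TGI.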

What all share (assay): NCI tumour cell line growth inhibition, 48 h
Test [1] deals with UACC-62 melanoma.
Test [2] has as its system MCF7 breast.
In test [3] the test system is A498 renal.
In test [4] the test system is SK-MEL-28 melanoma.
Test [5] concerns 786-0 renal.
Test [6] deals with KM12 colon.
For test [7], the system named is HCC-2998 colon.
For test [8], the system named is SNB-75 CNS.
The test system of test [9] is MALME-3M melanoma.
In test [10] the test system is RXF 393 renal.

`COc1ccc(-c2nc3ccc(Cc4ccc5nc(-c6ccc(OC)cc6)[nH]c5c4)cc3[nH]2)cc1`: the GI50 in [1] is 0.0471 µM; in test [2], 0.0254 µM; in test [3], 0.018 µM; in [4], 0.252 µM; in test [5], 0.0358 µM; in [6] it was < 0.01 µM. Also, the values for the GI50 in test [7] and in test [8] were 0.027 µM and 0.0259 µM, respectively. Further, the TGI in [1] stood at 2.19 µM; in [2], 0.424 µM; in [3], 0.193 µM; in test [4], 2.49 µM; in test [5], 0.381 µM; in test [6] it was 0.163 µM. The TGI in [7] is 0.188 µM; in [8] it was 1.23 µM.

On to `COc1ccc2c(C(=O)O)cc3ccccc3c2c1OC`, for which the TGI in [1] amounted to 32.5 µM; in [3], 40.7 µM; in test [4], 33.6 µM; in test [9], 41.9 µM; in test [5], 31.1 µM; in test [6] it was 33.9 µM. Moreover, the TGI in test [7] was 46.8 µM; in [8] it was > 100 µM; in [10] it was 28.6 µM.

On to `O=C1NC(=O)C2C(=O)NC(=O)C1C2Cc1ccco1` (stereo unspecified), for which the TGI in test [1], in test [3], in [4], in test [9], in [5] and in [6] was > 100 µM in each case. Moreover, the TGI in [7], in [8] and in [10] was > 100 µM throughout.

As to `CC(=O)OCC(=O)[C@@]1(O)CC[C@H]2[C@@H]3C[C@H](C)C4=CC(=O)C=C[C@]4(C)[C@@]3(F)[C@@H](O)C[C@@]21C`, the TGI in test [1], in [4], in [9], in test [5], in test [6] and in test [7] was > 100 µM each time. For the same compound, the TGI in [8] and in test [10] was > 100 µM throughout.

For the compound `Nc1nc(=S)c2c(ncn2CCO)[nH]1`, the TGI in test [1], in test [3], in [4], in test [9], in [5] and in test [6] was > 100 µM in each case. Further, the TGI in [7], in test [8] and in test [10] was > 100 µM each time.

Take `O=C1CC(c2ccc(Cl)cc2)=Nc2ccccc2N1`: the TGI in test [1], in test [3], in test [4], in test [9], in [5] and in [6] was > 100 µM in each case. Besides, the TGI is > 100 µM in test [7], 50.2 µM in [8] and 61.4 µM in [10].

In the case of `O=C1N[C@@H]2CCCC[C@@H]2C12CCCCC2`, the TGI in test [1], in [3], in test [4], in [9], in test [5] and in test [6] was > 100 µM throughout. The TGI in test [7], in test [8] and in [10] was > 100 µM in each case.

Turning to `CNCc1ccc(-c2cc(-c3nc(-c4ccc(S(=O)(=O)C(C)C)cc4)cnc3N)on2)cc1`, the GI50 in test [1] was 4.77 µM; in test [2], 0.0946 µM; in [4], 1.72 µM; in test [5] it was 0.362 µM; in test [6] it was 1.87 µM; in test [7], 2.48 µM. Further, the GI50 in test [8] was 11.4 µM. In addition, the TGI worked out at 26.6 µM in [1]; 1.82 µM in test [2]; 2.03 µM in test [3]; 3.21 µM in [4]; 11.3 µM in test [5]; 12.6 µM in test [6]. The TGI amounted to 19.6 µM in test [7] and 26.4 µM in [8].

As to `COC(=O)C1=C(C(=O)OC)C2(c3ccccc3)OC1(c1ccccc1)c1cc3ccccc3cc12`, the TGI in test [1] worked out at 4.26 µM; in test [4] it was 3.82 µM; in test [9] it was 3.19 µM; in [5], 2.7 µM; in test [6] it was 3.97 µM; in test [7] it was 3.7 µM. The TGI in test [8] was 1.99 µM; in [10], 2.57 µM.

Regarding `CCOC(=O)c1ccc(N=Nc2ccc(N(CCC#N)CCC#N)cc2C)cc1`, the TGI in test [1], in test [3], in test [9], in test [5], in test [6] and in test [7] was > 100 µM in each case. The TGI in test [10] was > 100 µM.

In the case of `CC(=O)Oc1c(C(=O)[O-])cc(C(C)C)cc1C(C)C.CC(=O)Oc1c(C(=O)[O-])cc(C(C)C)cc1C(C)C.CC(=O)Oc1c(C(=O)[O-])cc(C(C)C)cc1C(C)C.CC(=O)Oc1c(C(=O)[O-])cc(C(C)C)cc1C(C)C.[Cu+2].[Cu+2]`, the GI50 in [1] was 18.6 µM; in [2], 21 µM; in test [3], 16 µM; in test [4] it was 17.9 µM; in test [5], 63.6 µM; in test [6], 19.1 µM. The GI50 in test [8] is 34.3 µM. Further, the TGI in test [1] is 39.9 µM; in test [2], 65.2 µM; in test [3], 32.8 µM; in [4], 33.4 µM; in [5] it was > 100 µM; in test [6], > 100 µM. The compound further gave a TGI in [8] of 77.6 µM.

For `OCCCCC#Cc1ccccc1C#Cc1cccc(C(F)(F)F)c1`, the GI50 was 15.9 µM in [1]; 21.2 µM in test [2]; 18.2 µM in [3]; 12 µM in [4]; 26 µM in [9]; 11.1 µM in test [5]. Also, the GI50 is 16.2 µM in test [6], 17.7 µM in [7] and 14.6 µM in test [8]. Moreover, the TGI turned out to be 29.5 µM in test [1]; 42.7 µM in test [2]; 33.1 µM in [3]; 25 µM in test [4]; 48.5 µM in test [9]; 34 µM in test [5]. Besides, the TGI is 31.3 µM in test [6], 32.3 µM in [7] and 29.3 µM in test [8].
